Test results as given in patent publication US11780833B2, “Emetine derivatives, prodrugs containing same, and methods of treating conditions using same” (HOWARD UNIVERSITY, priority 2011, dated 2023).
Like-named read-outs stand apart in the source and are kept apart here.

Experiments:
[1] = In vivo toxicity study in mice
Description: Each experiment or dosage involved three mice, and drug solutions were made in 1% DMSO/PBS. Each experiment was done three times.
The compounds were subjected to in vivo toxicity studies as follows. […] This observation was the same on the third and fourth day.

[2] = pH-responsiveness by HPLC: emetine released in aqueous phosphate buffer; type: physicochemical; settings: 37° C.
Protocol: Relative rates of hydrolysis of the compounds listed in Table 5 below over a 48 hour period were evaluated using the percent emetine released from the acid catalyzed hydrolysis of compounds 1 to 6.
The compounds were incubated in aqueous phosphate buffer at pH 5.5, 6.5 and 7.4 at 37° C. over a 48 hour period. High performance liquid chromatography (HPLC) was employed to analyze the samples and quantify how much emetine was released. The compounds whose hydrolysis to emetine is shown in table 5 are all 100% stable at physiological pH 7.4 up to a 5 day exposure.

[3] = test system: PC3 cells; test: Cytotoxicity in 100% confluent PC3 cells (Example 9); type: cell-based; settings: Homo sapiens, PC-3, 120 h; PC3, 100% confluent cells, medium pH 6.7, day 5
Protocol: (§1) The cytotoxicity of emetine and Compound 2 (as produced above in Example 1 and referred to in the figures as “ESA44”) was evaluated in DU145 and PC3 cells using 100% confluent cells. Cells were plated at 40,000 cells per well and allowed to grow for 4 days until the pH of the medium was 6.7. Compound 2 was added in RPMI, pH 7.0. The effect of the pH on the hydrolysis of Compound 2 to release emetine was evaluated. FIGS. 1 and 2 are graphs showing the viability of DU145 and PC3 cells as percent of vehicle on day 5 versus concentration of emetine and Compound 2.

[4] = test system: PC3 cells; test: cells; type: cell-based; settings: Homo sapiens
Protocol: (§2) Studies were carried out on three prostate cancer cell lines: LNCaP, PC3, and DU145. […] There was not a significant difference in cytotoxicity of emetine between days 3 and 7. […] This increase is most likely due to the release of emetine from the dithiocarbamate salt over the time period. Further drug release studies at pH 5 confirmed about 45% release of emetine from the dithiocarbamate salt after 3-day incubation at this acidic pH maintained at 37° C., whereas release of emetine from the dithiocarbamate salt was not observed at physiological pH (e.g., about 7.4).
(§3) Various compounds prepared according to Examples 1-5 were studied in LNCaP, PC3, and DU145 cells.
(§4) Various compounds prepared according to Example 6 were studied in DU145 and PC3 cells. The IC50 was determined at 3, 5, and 7 days.

[5] = test system: DU145 cells; test: cells; type: cell-based; settings: Homo sapiens
Protocol: as §2, §3, §4

[6] = test system: DU145 cells; test: Cytotoxicity in 100% confluent DU145 cells (Example 9); type: cell-based; settings: Homo sapiens, DU-145, 120 h; DU145, 100% confluent cells, medium pH 6.7, day 5
Protocol: as §1

[7] = test system: LNCaP cells; test: Cytotoxicity in LNCaP prostate cancer cell line; type: cell-based; settings: Homo sapiens
Protocol: as §2, §3

Structure (SMILES): CCC1CN2CCc3cc(OC)c(OC)cc3C2CC1CC1c2cc(OC)c(OC)cc2CCN1C(=O)/C=C(/C)C(=O)O (stereo not drawn) [Compound 5]
- toxicity observation ([1]; 11 and 33 MPK, day 5): no noticeable toxicity effect
- toxicity observation ([1]; 100 MPK or below (33 and 11 MPK), through third and fourth day): no noticeable toxicity
- toxicity observation ([1]; 100 MPK, day 5): slight weight loss
- % Emetine at pH 5.5 ([2]; pH 5.5, 0 hr): 0.0%
- % Emetine at pH 5.5 ([2]; pH 5.5, 24 hrs): 61.5%
- % Emetine at pH 5.5 ([2]; pH 5.5, 48 hrs): 77.3%
- % Emetine at pH 6.5 ([2]; pH 6.5, 0 hr): 0.0%
- % Emetine at pH 6.5 ([2]; pH 6.5, 24 hrs): 24.9%
- % Emetine at pH 7.4 to 8.0 over 72 hrs ([2]; pH 7.4 to 8.0, 0 hrs): 0.0%
- % Emetine at pH 7.4 to 8.0 over 72 hrs ([2]; pH 7.4 to 8.0, 24 hrs): 0.0%
- % Emetine at pH 7.4 to 8.0 over 72 hrs ([2]; pH 7.4 to 8.0, 48 hrs): 0.0%

Structure (SMILES): CC[C@H]1CN2CCc3cc(OC)c(OC)cc3[C@@H]2C[C@@H]1C[C@H]1NCCc2cc(OC)c(OC)cc21 [Emetine]
- toxicity observation ([1]; 33 and 11 MPK): slight weight loss
- toxicity observation ([1]; single dose 100 MPK, within 48 hours): killed all three mice
- IC50 [3]: 3850 ± 149 nM
- IC50 ([4]; PC-3, 72 h, PC3, 3 day exposure, read-out: IC50): 35.1 nM
- IC50 ([4]; PC-3, 168 h, PC3, 7 days, read-out: IC50 after 7 days): 26.8 ± 2.28 nM
- IC50 ([4]; PC-3, 168 h, PC3, seven day exposure, read-out: IC50): 29.4 nM
- IC50 ([5]; DU-145, 72 h, DU145, 3 day exposure, read-out: IC50): 37.9 nM
- IC50 ([5]; DU-145, 168 h, DU145, 7 days, read-out: IC50 after 7 days): 23.7 ± 1.22 nM
- IC50 ([5]; DU-145, 168 h, DU145, seven day exposure, read-out: IC50): 23.4 nM
- IC50 [6]: 12900 ± 2390 nM
- IC50 ([7]; 72 h, 3 day exposure, read-out: IC50): 32.9 nM
- IC50 ([7]; 168 h, 7 days, read-out: IC50 after 7 days): 27.8 ± 3.84 nM
- IC50 ([7]; 168 h, seven day exposure, read-out: IC50): 31.6 nM
